Reference: ChEMBL document CHEMBL3044946, “Glyphosate resistance in perennial ryegrass (Lolium perenne L.) from Argentina” (2012)
Active and inactive are the calls of the source. The calls are words filed in the database; no cut-off is given here.

How the values were obtained:
Lolium perenne [1] = assay: Reduction in chlorophyll content in glyphosate-susceptible Lolium perenne (perennial ryegrass) at 1000 to 3000 g ae/ha measured after 7 to 10 days post compound application; format: functional, organism-based
Lolium perenne [2] = assay: Herbicidal activity against glyphosate-resistant Lolium perenne (perennial ryegrass) assessed as regrowth level of controlled plants at 1440 g ae/ha measured 30 days after compound application; format: functional
Lolium perenne [3] = assay: Reduction in chlorophyll content in glyphosate-resistant Lolium perenne (perennial ryegrass) at 1000 to 3000 g ae/ha measured after 10 days post compound application; format: functional, organism-based
Lolium perenne [4] = assay: Herbicidal activity against glyphosate-resistant Lolium perenne (perennial ryegrass) assessed as inhibition of plumule growth; format: functional
Lolium perenne [5] = assay: Induction of shikimate accumulation in leaf blade of glyphosate-resistant Lolium perenne (perennial ryegrass) at 1440 g ae/ha measured 24 to 72 hr post compound application; format: functional, organism-based
Lolium perenne [6] = assay: Induction of shikimate accumulation in leaf sheath of glyphosate-susceptible Lolium perenne (perennial ryegrass) at 1440 g ae/ha measured 48 hr post compound application; format: functional, organism-based
Lolium perenne [7] = assay: Resistance index, ratio of LD50 for glyphosate-resistant Lolium perenne (perennial ryegrass) to LD50 for glyphosate-susceptible Lolium perenne (perennial ryegrass) by germination inhibition study; format: functional
Lolium perenne [8] = assay: Induction of shikimate accumulation in leaf lamina of glyphosate-susceptible Lolium perenne (perennial ryegrass) at 1440 g ae/ha measured 72 hr post compound application; format: functional, organism-based
Lolium perenne [9] = assay: Herbicidal activity against glyphosate-susceptible Lolium perenne (perennial ryegrass) assessed as inhibition of plant survival measured after 15 days post compound application; format: functional
Lolium perenne [10] = assay: Herbicidal activity against glyphosate-resistant Lolium perenne (perennial ryegrass) assessed as inhibition of germination; format: functional
Lolium perenne [11] = assay: Herbicidal activity against glyphosate-resistant Lolium perenne (perennial ryegrass) assessed as plant-regrowth at 2880 g ae/ha measured 30 days after compound application; format: functional
Lolium perenne [12] = assay: Induction of shikimate accumulation in leaf lamina of glyphosate-susceptible Lolium perenne (perennial ryegrass) at 1440 g ae/ha measured 24 hr post compound application; format: functional, organism-based
Lolium perenne [13] = assay: Herbicidal activity against glyphosate-resistant Lolium perenne (perennial ryegrass) assessed as regrowth level of controlled plants at 360 g ae/ha measured 30 days after compound application; format: functional
Lolium perenne [14] = assay: Resistance index, ratio of ED50 for glyphosate-resistant Lolium perenne (perennial ryegrass) to ED50 for glyphosate-susceptible Lolium perenne (perennial ryegrass) by plant survival inhibition study; format: functional
Lolium perenne [15] = assay: Herbicidal activity against glyphosate-resistant Lolium perenne (perennial ryegrass) assessed as plant-regrowth at 1440 g ae/ha measured 30 days after compound application; format: functional
Lolium perenne [16] = assay: Herbicidal activity against glyphosate-resistant Lolium perenne (perennial ryegrass) assessed as regrowth level of controlled plants at 2880 g ae/ha measured 30 days after compound application; format: functional
Lolium perenne [17] = assay: Induction of shikimate accumulation in leaf sheath of glyphosate-resistant Lolium perenne (perennial ryegrass) at 1440 g ae/ha measured 24 to 72 hr post compound application; format: functional, organism-based
Lolium perenne [18] = assay: Herbicidal activity against glyphosate-resistant Lolium perenne (perennial ryegrass) assessed as inhibition of plant survival measured after 15 days post compound application; format: functional
Lolium perenne [19] = assay: Herbicidal activity against glyphosate-resistant Lolium perenne (perennial ryegrass) assessed as regrowth level of controlled plants at 720 g ae/ha measured 30 days after compound application; format: functional
Lolium perenne [20] = assay: Herbicidal activity against glyphosate-susceptible Lolium perenne (perennial ryegrass) assessed as inhibition of plumule growth; format: functional
Lolium perenne [21] = assay: Induction of shikimate accumulation in leaf blades of glyphosate-susceptible Lolium perenne (perennial ryegrass) at 1440 g ae/ha measured 48 hr post compound application; format: functional, organism-based
Lolium perenne [22] = assay: Herbicidal activity against glyphosate-resistant Lolium perenne (perennial ryegrass) assessed as plant-regrowth at 360 g ae/ha measured 30 days after compound application; format: functional
Lolium perenne [23] = assay: Herbicidal activity against glyphosate-resistant Lolium perenne (perennial ryegrass) assessed as plant-regrowth at 720 g ae/ha measured 30 days after compound application; format: functional
Lolium perenne [24] = assay: Resistance index, ratio of GR50 for glyphosate-resistant Lolium perenne (perennial ryegrass) to GR50 for glyphosate-susceptible Lolium perenne (perennial ryegrass) by plumule growth inhibition study; format: functional
Lolium perenne [25] = assay: Herbicidal activity against glyphosate-susceptible Lolium perenne (perennial ryegrass) assessed as inhibition of germination; format: functional

In the case of `O=C(O)CNCP(=O)(O)O` [GLYPHOSATE], the Activity (Lolium perenne [1]) is reported as “Active”, the Activity (Lolium perenne [2]) is reported as 43% and the Activity (Lolium perenne [3]) is reported as “inactive”. The GR50 (Lolium perenne [4]) was 41.5 gAe/L, the Activity (Lolium perenne [5]) was “inactive” and the Activity (Lolium perenne [6]) was “Active”. For the same compound, the Ratio (Lolium perenne [7]) was 3.2, the Activity (Lolium perenne [8]) was “Active” and the ED50 (Lolium perenne [9]) was 138.1 gAe/L. The LD50 (Lolium perenne [10]) was 138 gAe/L, the Activity (Lolium perenne [11]) was 25% and the Activity (Lolium perenne [12]) was “Active”. It also gave an Activity (Lolium perenne [13]) of 37%, a Ratio (Lolium perenne [14]) of 10.8 and an Activity (Lolium perenne [15]) of 23%. For the same compound, the Activity (Lolium perenne [16]) was 33%, the Activity (Lolium perenne [17]) was “inactive” and the ED50 (Lolium perenne [18]) was 1495 gAe/L. The Activity (Lolium perenne [19]) was 48%, the GR50 (Lolium perenne [20]) was 9.3 gAe/L and the Activity (Lolium perenne [21]) was “Active”. It also gave an Activity (Lolium perenne [22]) of 6%, an Activity (Lolium perenne [23]) of 17% and a Ratio (Lolium perenne [24]) of 4.4. For the same compound, the LD50 (Lolium perenne [25]) was 42 gAe/L.
